The test system of experiment [1] is KB (human mouth carcinoma). The experiment can be described thus: In vitro cytotoxicity. The following applies: KB; for inhibition at 10 µM: 10^−5 M, read-out: % of cellular growth inhibition; for inhibition at 1 µM: 10^−6 M, read-out: % of cellular growth inhibition (converted). The experiment is classed as cell-based. As to the method:
(§1) In vitro cytotoxicity was assayed on three cell lines—KB (human mouth carcinoma), MCR5 (human lung fibroblast) and HCT116 (human colon tumor). Results are presented in table III as % of cellular growth inhibition in presence of 10^−5 M and 10^−6 M of the tested bis-indolic derivatives.

The subject of experiment [2] is HCT116 (human colon tumor). The experiment can be described thus: In vitro cytotoxicity. The following applies: for inhibition at 10 µM: HCT-116, HCT116, 10^−5 M, read-out: % of cellular growth inhibition; for inhibition at 1 µM: HCT-116, HCT116, 10^−6 M, read-out: % of cellular growth inhibition (converted). It is filed as cell-based. As for the experimental part:
as §1

Experiment [3] has as its system MRC5 (human lung fibroblast). The experiment can be described thus: In vitro cytotoxicity. The experiment is classed as cell-based. The following applies: for inhibition at 10 µM: MRC5, 10^−5 M, read-out: % of cellular growth inhibition; for inhibition at 1 µM: MRC5, 10^−6 M, read-out: % of cellular growth inhibition (converted). As to the method:
as §1

Experiment [4] relates to Acinetobacter baumanii ATCC 19606. The experiment can be described thus: MIC microdilution (Table I-1). The experiment is classed as cell-based. The following applies: Acinetobacter baumannii, ATCC19606, read after 18 hours. A digest of the protocol: (§2)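 CLSI (M07-A8) broth microdilution in Mueller Hinton broth at a final inoculum of 5×10^5 CFU/ml. Compounds were tested as two-fold serial dilutions across 0.50-128 mg/L final concentrations, and plates were incubated at 37° C. in ambient air.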

Experiment [5] has as its system Bacillus subtilis CIP 5262. The experiment can be described thus: MIC microdilution (Table I-1). It is filed as cell-based. The following applies: CIP5262, read after 18 hours, read-out: MIC. Summed up: as §2
For orientation: Dilution methods test growth across graded concentrations, often in twofold steps.

The subject of experiment [6] is Listeria innocua CIP 80.11. Put plainly: MIC microdilution (Table I-1). It is filed as cell-based. To be noted: CIP80, read after 18 hours, read-out: MIC. Summed up:
as §2

Experiment [7] relates to Enterobacter cloacae ATCC 13047. The experiment can be described thus: MIC microdilution (Table I-1). It is filed as cell-based. The following applies: ATCC13047, read after 18 hours. Summed up: as §2
In a further experiment the test system is S. epidermidis CIP 81.55. Put plainly: MIC microdilution (Table I-1). The experiment is classed as cell-based, Staphylococcus epidermidis. The following applies: Staphylococcus epidermidis, CIP81, read after 18 hours, read-out: MIC. As for the experimental part:
(§3) The microdilution method recommended by the Clinical and Laboratory Standard Institute [M07-A8, Vol. 29, N^o 2] was used. The activity of indolic compounds was tested against 29 bacterial strains belonging to 17 different species and 12 different genera (Staphylococcus, Streptococcus, Enterococcus, Listeria, Bacillus, Haemophilus, Escherichia, Klebsiella, Enterobacter, Serratia, Pseudomonas, and Acinetobacter). Bacterial inocula were prepared in Mueller Hinton broth (MH2, bioMerieux, Marcy L'Etoile, France), supplemented with 10% sheep blood for fastidious species (i.e., Streptococcus pneumoniae and Haemophilus influenzae). They were dispensed in 96 well microtiter plates (5×10^5 CFU/ml of final inoculum). Indolic compounds were added to the wells as to obtain two-fold serial concentrations (0.50-128 mg/L of final concentrations). Plates were incubated at 37° C. in ambient air, or at 37° C. in 5% CO2 enriched atmosphere for fastidious species. […] Drug-free cultures served as growth controls. Cultures receiving gentamicin, ciprofloxacin or cefotaxime served as positive controls.

Experiment [8] deals with S. epidermidis CIP 103627. The experiment can be described thus: MIC microdilution (Table I-1). The experiment is classed as cell-based, Staphylococcus epidermidis. The following applies: Staphylococcus epidermidis, CIP103627, read after 18 hours, read-out: MIC. As to the method: as §3
In experiment [9] the test system is S. epidermidis ATCC 12228. The experiment can be described thus: MIC microdilution (Table I-1). The experiment is classed as cell-based, Staphylococcus epidermidis. The following applies: Staphylococcus epidermidis, ATCC12228, read after 18 hours, read-out: MIC. As to the method:
as §3

The test system of a further experiment is S. pneumoniae ATCC 6303. The experiment can be described thus: MIC microdilution (Table I-1). It is filed as cell-based, Streptococcus pneumoniae. To be noted: Streptococcus pneumoniae, ATCC6303, read after 18 hours, read-out: MIC. As for the experimental part:
as §3

For experiment [10], the system named is Staphylococcus aureus K2378 (overexpresses the efflux pump NorA from a multicopy plasmid). Put plainly: Efflux pump inhibition assay with sub-inhibitory ciprofloxacin. The experiment is classed as cell-based. As to the method:
The efflux pump inhibition potential of the bis-indolic derivatives was tested using two steps. In a first step, the intrinsic antibacterial activity of the compounds was assayed against the following strains:
The following experimental protocol was used: indolic derivatives (initially solubilised in DMSO at 10 mg/mL) were dispensed in a 96-wells microplate by two fold serial dilutions in Muller-Hinton medium (MH, Bio Rad) using a Biomek 2000 (Beckman) handling robot. 100 μL of the bacterial inoculum (an overnight culture at 37° C. in 5 mL MH diluted 100-fold) was then added in each well. The total volume was 200 μL in each well and the final bacteria concentration 10^6 CFU/mL (CFU: colony forming unit). The highest final indolic derivative concentration was 128 mg/L. Growth was assayed with a microplate reader by monitoring absorption at 620 nm after 1, 2, 5, 7 and 24 h incubation at 37° C. In addition, the plates were read visually after 24 hours incubation. Cultures containing 5 μL DMSO were used as growth controls. In addition, two controls containing a sub-inhibitory or a inhibitory antibiotic concentration for the tested strain were performed. The antibiotics used were ampicillin (0.5 and 32 μg/mL) for E. coli, kanamycin (0.5 and 16 μg/mL) for S. aureus ATCC 25923, ciprofloxacin (4 and 64 mg/L) for S. aureus 1199B, ciprofloxacin (0.5 and 2 mg/L) for S. aureus K2378. All experiments were performed in duplicate.
Efflux pump inhibition assays were then performed against resistant Staphylococcus aureus strains SA 1199B and SA K2378 for bis-indolic derivatives. […] The minimal inhibitory concentration (MIC) of the bis-indolic compound allowing a complete inhibition of the bacterial growth in the presence of ciprofloxacin was determined.

Setting [11] is: in the presence of ciprofloxacin 0.25 mg/L (MIC/8).

Converted amounts (≈) assume the structure as drawn. Some results are limits rather than exact numbers.

For orientation: inhibition means the drop in the measured response relative to a control, in per cent. By MIC is commonly meant the least concentration at which growth counts as inhibited.

For the compound `CC(NC(=O)C(=O)c1c[nH]c2ccc(Br)cc12)c1c[nH]c2ccc(Br)cc12` (stereo not shown) [Compound 5, 2-(5-Bromo-1H-indol-3-yl)-N-(1-(5-bromo-1H-indol-3-yl)ethyl)-2-oxoacetamide], the figures for the inhibition at 10 µM in [1], in experiment [2] and in [3] were 91 ± 3%, 80 ± 3% and 85 ± 2%, respectively. The inhibition at 1 µM in experiment [1] was 0%; in experiment [2], 10%; in experiment [3] it was 6%. Moreover, the MIC in experiment [4] is over 128 µg/mL; in experiment [5], 64 µg/mL (≈ 131 µM); in experiment [6] it was 64 µg/mL (≈ 131 µM); in [7] it was over 128 µg/mL; in the experiment on S. epidermidis CIP 81.55, 2 µg/mL (≈ 4.09 µM); in experiment [8] it was 2 µg/mL (≈ 4.09 µM). Further, the MIC in [9] came to 2 µg/mL (≈ 4.09 µM); in the experiment on S. pneumoniae ATCC 6303 it was 32 µg/mL (≈ 65.4 µM).

With `CC(C)(C)OC(=O)NCC(NC(=O)C(=O)c1c[nH]c2ccc(Br)cc12)c1c[nH]c2ccc(Br)cc12` (stereo not shown) [Compound 4, tert-Butyl(2-(5-bromo-1H-indol-3-yl)-2-(2-(5-bromo-1H-indol-3-yl)-2-oxoacetamido)ethyl) carbamate], the inhibition at 10 µM in experiment [1] was 76 ± 5%; in experiment [2], 58 ± 4%; in experiment [3], 51 ± 9%. Moreover, the inhibition at 1 µM in [1], in [2] and in [3] was 0% each time. In addition, the MIC in [4] was over 128 µg/mL; in experiment [7] it was over 128 µg/mL; in the experiment on S. epidermidis CIP 81.55 it was 1.6 µg/mL (≈ 2.65 µM); in experiment [8] it was 1.6 µg/mL (≈ 2.65 µM); in [9], 0.8 µg/mL (≈ 1.32 µM).

Take `O=C(C(=O)N1CCOCC1c1c[nH]c2ccccc12)c1c[nH]c2ccccc12` (stereo not shown) [Compound 6b, 1-(3-(1H-Indol-3-yl)morpholino)-2-(1H-indol-3-yl)ethane-1,2-dione]: the inhibition at 10 µM stood at 9 ± 4% in [1], 21 ± 10% in experiment [2] and 15 ± 11% in experiment [3]. The inhibition at 1 µM is 0% in [1], 2% in experiment [2] and 0% in experiment [3]. The MIC (in experiment [4]; in [5]; in experiment [6]; in experiment [7]; in the experiment with S. epidermidis CIP 81.55; in [8]) was over 128 µg/mL throughout. The MIC (in experiment [9]; in the experiment with S. pneumoniae ATCC 6303) was over 128 µg/mL in each case. Moreover, the “CMI, mg/L (Ciprofloxacin concentration, mg/L)” value (“CMI, mg/L” for short) in experiment [10] (setting [11]) is recorded as 16 (0.25) mg/L.

For the compound `CC(C)(C)OC(=O)NCC(NC(=O)C(=O)c1c[nH]c2ccccc12)c1c[nH]c2ccccc12` (stereo not shown) [Compound 2, tert-Butyl(2-(2-(1H-indol-3-yl)-2-oxoacetamido)-2-(1H-indol-3-yl)ethyl)carbamate], the values for the inhibition at 10 µM in [1], in experiment [2] and in experiment [3] were 97 ± 1%, 96 ± 1% and 100 ± 2%, respectively. For the same compound, the inhibition at 1 µM in experiment [1] was 33%; in [2] it was 53%; in [3] it was 10 ± 0.5%. Further, the MIC (in experiment [4]; in experiment [5]; in experiment [6]; in experiment [7]; in the experiment on S. epidermidis CIP 81.55; in experiment [8]) was over 128 µg/mL throughout. Besides, the MIC (in [9]; with S. pneumoniae ATCC 6303) was over 128 µg/mL each time.

On to `CC(C)(C)OC(=O)N1CCN(C(=O)C(=O)c2c[nH]c3ccc(Br)cc23)C(c2c[nH]c3ccc(Br)cc23)C1` (stereo not shown) [Compound 6f, tert-Butyl 3-(5-bromo-1H-indol-3-yl)-4-(2-(5-bromo-1H-indol-3-yl)-2-oxoacetyl) piperazine-1-carboxylate], for which the values for the inhibition at 10 µM in experiment [1], in experiment [2] and in experiment [3] were 92 ± 3%, 81 ± 2% and 39 ± 4%, respectively. Also, the inhibition at 1 µM in experiment [1], in [2] and in experiment [3] was 0% each time. The MIC (in experiment [4]; in experiment [5]; in [6]; in [7]; with S. epidermidis CIP 81.55; in experiment [8]) was over 128 µg/mL throughout. The MIC (in [9]; in the experiment with S. pneumoniae ATCC 6303) was over 128 µg/mL throughout. In addition, the “CMI, mg/L” value in experiment [10] (setting [11]) is on record as 1 (0.25) mg/L; in experiment [10] (in the presence of ciprofloxacin 0.5 mg/L (MIC/4)), 1 (0.5) mg/L.

On to `O=C(C(=O)N1CCCCC1c1c[nH]c2ccccc12)c1c[nH]c2ccccc12` (stereo not shown) [Compound 6a, 1-(2-(1H-Indol-3-yl)piperidin-1-yl)-2-(1H-indol-3-yl)ethane-1,2-dione], for which the results for the inhibition at 10 µM in experiment [1], in [2] and in experiment [3] were 20 ± 13%, 37 ± 6% and 28 ± 9%, respectively. Further, the inhibition at 1 µM in [1], in experiment [2] and in experiment [3] was 0% in each case. Also, the MIC (in experiment [4]; in experiment [5]; in experiment [6]; in [7]; in the experiment on S. epidermidis CIP 81.55; in experiment [8]) was over 128 µg/mL throughout. The MIC (in [9]; in the experiment on S. pneumoniae ATCC 6303) was over 128 µg/mL throughout. For the same compound, the “CMI, mg/L” value in experiment [10] (setting [11]) is listed as 8 (0.25) mg/L.

Regarding `O=C(C(=O)N1CCCCC1c1c[nH]c2ccc(Br)cc12)c1c[nH]c2ccc(Br)cc12` (stereo not shown) [Compound 6d, 1-(5-Bromo-1H-indol-3-yl)-2-(2-(5-bromo-1H-indol-3-yl)piperidin-1-yl)ethane-1,2-dione], the figures for the inhibition at 10 µM in experiment [1], in [2] and in experiment [3] were 53 ± 5%, 41 ± 4% and 0%, respectively. For the same compound, the values for the inhibition at 1 µM in experiment [1], in experiment [2] and in experiment [3] were 0%, 4% and 0%, respectively. In addition, the MIC (in experiment [4]; in [5]; in experiment [6]; in experiment [7]; in the experiment on S. epidermidis CIP 81.55; in experiment [8]) was over 128 µg/mL each time. Also, the minimum inhibitory concentration (MIC) (in [9]; in the experiment with S. pneumoniae ATCC 6303) was over 128 µg/mL in each case. Also, the “CMI, mg/L” value in [10] (setting [11]) is 8 (0.25) mg/L.

Source of the values: patent US9321722B2, “Bis-indolic derivatives, their uses in particular as antibacterials” (UNIVERSITE JOSEPH FOURIER, priority 2011, dated 2016).
